Counter-ions that a name gives are not always drawn. Like-named read-outs stand apart in the source and are kept apart here.
Columns and labels:
[1] = target: T1, GST-HBx (genotype D); HBx-D (Hepatitis B virus, UniProt Q80IS1); experiment: biochemical; set-up: Surface plasmon resonance imaging; GST-HBx injected over chip of photo-crosslinked FDA-approved drugs (PlexArray HT), Langmuir fit
T1 construct: gene X; N-terminal GST tag kept (GST 26 kDa; GST-HBx 43 kDa), full-length HBx (154 aa), pGEX, E. coli BL21 (DE3), glutathione-Sepharose
Protocol: All the assays and analyses were performed by Plexera LLC. The binding activity was measured by surface plasmon resonance imaging (SPRi) using a PlexArray HT system (Plexera LLC). The FDA1018 drug library chip consists of an array of 1018 U.S. FDA-approved drugs were ultraviolet-linked on the surface of a chip and used for screening of compounds that bind to the HBx protein. Phosphate-buffered saline was used for a running buffer and 10 mM glycine hydrochloride (pH 2.0) for a regeneration buffer. 25, 50, or 100 nM of GST-HBx protein were injected on the chip surface at a flow rate of […] in order, and the SPRi signal was measured at 25 °C. FK506-binding protein 12 (FKBP12) was used for a positive control (Supplementary Figure S1). The data were analyzed by Plexera Data Analysis Software based on Langmuir adsorption isotherm, and determination of the dissociation constant, dissociation rate constant, and association rate constant was carried out. The binding of GST-HBx protein to 1018 FDA-approved compounds was screened on a chip by SPRi assay. […] Because purification of HBx alone was difficult due to insolubility, HBx was expressed as a GST-fused protein.

[2] = target: T2, GST-HBx (genotype B); HBx-B; experiment: SPR imaging, compound array (PlexArray HT); set-up: species or system Hepatitis B virus; settings: PBS, 25 °C; compound UV-linked to chip surface, GST-HBx 25-100 nM as analyte
T2 construct: gene X; N-terminal GST tag kept (GST 26 kDa; GST-HBx 43 kDa), full-length HBx (154 aa), pGEX, E. coli BL21 (DE3), glutathione-Sepharose

[3] = target: T1, GST-HBx (genotype D); HBx-D; experiment: SPR imaging, compound array (PlexArray HT); assay type: binding
Source text: SPR imaging, compound array (PlexArray HT) on GST-HBx (genotype D); HBx-D

Row | SMILES | Kd [1] [nM] | koff [1] [s⁻¹] | kon ([1]; read-out: kon) [M⁻¹ s⁻¹] | Kd [2] [nM] | Kd [3] [nM] | kon ([1]; binder, kon (M-1 s-1)) [M⁻¹ s⁻¹]
1 | CC1=NN(c2ccc(C)c(C)c2)C(=O)/C1=N\Nc1cccc(-c2cccc(C(=O)O)c2)c1O [Eltrombopag] | 8.46 | 0.000385 | 45500 | – | – | –
2 | CCCCC(=O)N(Cc1ccc(-c2ccccc2-c2nn[nH]n2)cc1)[C@H](C(=O)O)C(C)C [Valsartan] | – | 0.00017 | 186000 | 7.94 | 0.912 | –
3 | O=C(O)c1ccc(-n2nc(-c3ccccc3O)nc2-c2ccccc2O)cc1 [Deferasirox] | 1.4 | 0.000134 | 95800 | – | – | –
4 | COc1ccc(/C=C/C(=O)Nc2ccccc2C(=O)O)cc1OC [Tranilast] | – | 2.61e-07 | 194000 | 0.184 | 0.00135 | –
5 | CC[C@H]1OC(=O)C[C@@H](O)[C@H](C)[C@@H](O[C@@H]2O[C@H](C)[C@@H](O)[C@H](N(C)C)[C@H]2O)[C@@H](CCN2C[C@H](C)C[C@H](C)C2)C[C@@H](C)C(=O)/C=C/C(C)=C/[C@@H]1CO[C@@H]1O[C@H](C)[C@@H](O)[C@@H](OC)[C@H]1OC [Tilmicosin] | 1.3 | 8.79e-05 | 67700 | – | – | –
6 | CC1(C)[C@@H](O[C@H]2O[C@H](C(=O)O)[C@@H](O)[C@H](O)[C@H]2O[C@@H]2O[C@H](C(=O)O)[C@@H](O)[C@H](O)[C@H]2O)CC[C@]2(C)[C@H]3C(=O)C=C4[C@@H]5C[C@@](C)(C(=O)O)CC[C@]5(C)CC[C@@]4(C)[C@]3(C)CC[C@@H]12 [Ammonium glycyrrhizinate] | – | 0.000108 | 143000 | – | 0.756 | –
7 | CCC1=C(C)CN(C(=O)NCCc2ccc(S(=O)(=O)NC(=O)N[C@H]3CC[C@H](C)CC3)cc2)C1=O [Glimepiride] | 9.81 | 0.000366 | 37300 | – | – | –
8 | CC(C)NCC(O)COc1ccc(CCOCC2CC2)cc1 (stereo not drawn) [Betaxolol] | 1.28 | 9.85e-06 | 7710 | – | – | –
9 | Cc1cnc(C(=O)NCCc2ccc(S(=O)(=O)NC(=O)NC3CCCCC3)cc2)cn1 [Glipizide] | 4.49 | 0.000203 | 45100 | – | – | –
10 | CC(C(=O)O)c1ccc(C(=O)c2cccs2)cc1 (stereo not drawn) [Suprofen] | 2.75 | 0.000308 | 112000 | – | – | –
11 | CC[C@H]1OC(=O)[C@H](C)[C@@H](O[C@H]2C[C@@](C)(OC)[C@@H](O)[C@H](C)O2)[C@H](C)[C@@H](O[C@@H]2O[C@H](C)C[C@H](N(C)C)[C@H]2O)[C@](C)(O)C[C@@H](C)CN(C)[C@H](C)[C@@H](O)[C@]1(C)O [Azithromycin] | 1.15 | – | 85100 | 1.31 | 0.0467 | 89200
12 | CC(C(=O)O)c1ccc2c(c1)Cc1cccnc1O2 (stereo not drawn) [Pranoprofen] | 5.58 | 0.000292 | 52300 | – | – | –
13 | CCOc1nc2cccc(C(=O)O)c2n1Cc1ccc(-c2ccccc2-c2nnn[nH]2)cc1 [Candesartan] | 1.33 | 0.00021 | 158000 | – | – | –
14 | CC(C)[C@H]1CC[C@H](C(=O)N[C@H](Cc2ccccc2)C(=O)O)CC1 [Nateglinide] | 2.31 | 0.00016 | 69100 | – | – | –
15 | CCCc1nc(C(C)(C)O)c(C(=O)OCc2oc(=O)oc2C)n1Cc1ccc(-c2ccccc2-c2nnn[nH]2)cc1 [Olmesartan medoxomil] | – | 0.000581 | 108000 | – | – | –
16 | CCCCC(CC)CNC(=N)NC(=N)NCCCCCCNC(=N)NC(=N)NCC(CC)CCCC (stereo not drawn) [Alexidine hydrochloride] | – | 7.83e-06 | 158000 | – | 0.0495 | –
17 | CCOc1nc2cccc(C(=O)O)c2n1Cc1ccc(-c2ccccc2-c2noc(=O)[nH]2)cc1 [Azilsartan] | 2.38 | 0.000348 | 146000 | – | – | –
18 | CCCCCCCCCCCC[N+](C)(C)CCOc1ccccc1 [Domiphen Bromide] | – | 3.03e-06 | 105000 | – | 0.0288 | –
19 | Cc1noc(NS(=O)(=O)c2ccc(N)cc2)c1C [Sulfisoxazole] | 9.88 | 0.000509 | 51500 | – | – | –
